Assay results: patent US20220160703A1, “TUMOR-SELECTIVE COMBINATION THERAPY” (The Board of Regents of The University of Texas System, priority 2019, published 2022)

What was measured:
[1] = test system: B16 tumors; assay: B16 (NQO1 null or NQO1 overexpressing) tumor model; assay type: in vivo, mice
[2] = test system: CD8 T cells; assay: Direct effect on CD8 T cells (apoptosis, proliferation, IFNγ); assay type: cell-based, mice; conditions: tumor lethal dose of β-lap
Protocol: FIGS. 23A-D. IB-DNQ-mediated antitumor effect influences tumor microenvironment. 6×10^5 MC38 cells were subcutaneously transplanted into C57BL/6 mice (n=3/group). Tumor-bearing mice were treated with IB-DNQ (12 mg/kg, i.t.) or vehicle every other day for four times after tumor volumes reached to 50 mm^3. Tumors were collected 24 h later after the last IB-DNQ injection. (FIG. 23A) Flow cytometry analysis of tumor-infiltrating immune cells from vehicle and IB-DNQ treated tumors. (FIG. 23B) Quantification of immune populations from vehicle and IB-DNQ treated tumors. (FIG. 23C) T cell proliferation in the presence/absence of IB-DNQ. CFSE labeled splenocytes were treated with lethal dose IB-DNQ for 4 h followed by washing and stimulation with anti-CD3 (1 μg/ml) and anti-CD28 (2 μg/ml) for 48 h, proliferative CD8 T cells were then analyzed by flow cytometry assay. (FIG. 23D) Effect of IB-DNQ on T cells. […] 24 h later, cell death was analyzed by flow cytometry. […]
I3-Lap-induced-antitumor effect depends on dendritic cell-mediated T cell cross-priming. […] To rule out of direct effect of β-lap on CD8 T cells, the inventors evaluated the expression of NQO1 on CD8 T cells and the effect of β-lap on CD8 T cell survival, proliferation and function. […] IFNγ secretion was measured to evaluate the capability of DCs to prime the antigen specific T cells.

[3] = test system: MC38-OVA cells; assay: Prophylactic tumor vaccination with β-lap-induced dying MC38-OVA cells; assay type: in vivo, mice; conditions: β-lap-induced dying MC38-OVA cells s.c., rechallenge after 7 days
Description: (FIG. 5B) The research schema for in vivo cross-presentation of tumor specific antigen from β-lap-induced dying tumor cells in FIG. 5C and FIG. 5D. (FIGS. 5C-D) Live or β-lap-induced dying MC38-OVA cells were subcutaneously inoculated into the flank of WT or Tlr4^−/− C57BL/6 (n=3-4/group) mice along with or without anti-HMGB1 antibody. 5 days later, the tumor drain lymph mode cells were collected and re-stimulated with OVA protein, OT-1 peptide or irradiated MC38-OVA cells for 48 hr. IFNγ producing cells were determined by ELISPOTs assay (FIG. 5C), and IFNγ secretion level was quantified by CBA mouse IFNγ assay (FIG. 5D). (FIG. 5E) The research schema for the immunogenic vaccine assay in FIG. 5F. (FIG. 5F) MC38-OVA cells treated with β-lap in vitro were inoculated s.c. along with or without anti-HMGB1 antibody into the flank of C57BL/6 mice (n=5-7/group). […] Data are shown as mean±SEM from at least two to three independent experiments. *P<0.05, **P<0.01, and ***P<0.001 determined by two-way ANOVA (FIG. 5C and FIG. 5D) or log-rank test (FIG. 5F).
The numbers of tumor antigen-specific T cells (FIG. 5C) and IFNγ production (FIG. 5D) in TdLN were determined; (ii) C57BL/6 mice that received vaccination with β-lap-induced dying MC38-OVA cells in the presence of anti-HMGB1Ab were rechallanged with MC38-OVA for evaluation of the antitumor protection (FIGS. 5E-F). […]

[4] = test system: IFNα/β; assay: Type I IFN and cytokine expression in tumor tissue (ELISA, PCR); assay type: in vivo, mice; conditions: MC38-OVA, β-lap 0.3 mg i.t. two times, six days later
Protocol: FIGS. 19A-C (related to FIGS. 4A-F). TLR4/MyD88 pathway but not TLR9 signaling is required for the antitumor effect of β-lap. (FIGS. 19A-B) MC38-OVA bearing mice were treated with β-lap (0.3 mg, i.t.) for two times. Six days later, tumor tissues were collected for both single cell digestion (FIG. 19A) and RNA extraction (FIG. 19B). (FIG. 19A) The secreted IFNβ from the suspended cell supernatant was measured by ELISA after a 24 hr culture. (FIG. 19B) The mRNA levels of IFNα1, IFNγ, TNFα and CXCL10 were determined by real-time PCR assay. (FIG. 19C) MC38 cells were implanted into Myd88^−/−, Tlr4^−/− and Tlr9^−/− C57BL/6 mice, respectively. Tumor bearing mice were then treated with β-lap (0.3 mg, i.t.) every other day for four times. Tumor growth was monitored twice a week. Data are shown as mean±SEM. *P<0.05, **P<0.01, ***P<0.001 determined by unpaired t-test. FIGS. 25A-E. IB-DNQ induces tumor ICD and dendritic cell-mediated T cell cross-priming. (FIG. 25A) The levels of HMGB1 released into cell culture supernatant after IB-DNQ treatment. MC38, MC38 NOQ1^−/−, B16, and B16 NOQ1^+ cells were treated with IB-DNQ for 4 h followed by replacing medium and growth for 24 h, culture supernatant was collected and HMGB1 levels were determined by ELISA. (FIGS. 25B-C) Relative expression of IFN-α and IFN-β. […]

CC1(C)CCC2=C(O1)c1ccccc1C(=O)C2=O [β-lap, β-lapachone]
tumor response ([1]; NQO1null parental B16, β-lap 0.3 mg i.t. four times): didn't response
tumor response ([1]; NQO1 overexpressing B16 clone #1 and #4, β-lap 0.3 mg i.t. four times): dramatic tumor suppression
TGI ([1]; NQO1 overexpressing B16 tumors (about 100 mm^3), β-lap 0.3 mg i.t. four times, anti-PD-L1 150 μg i.p. three times): 68.67%
CD8 T cell apoptosis, anti-CD3/CD28 stimulated proliferation and IFNγ production [2]: no effect
growth of re-challenged tumor after immunization [3]: prevented the growth of the re-challenged tumor
IFNα/β, CXCL10, IFNγ and TNFα in treated tumors [4]: upregulated
